Patent publication US20250296971A1, “GASTRIC INHIBITORY PEPTIDE RECEPTOR LIGANDS” (priority 2021, published 2025)
Like-named read-outs stand apart in the source and are kept apart here. *1 amine or outer side, *2 acyl side, *3 side chain or, on linkers, in order; H or OH if unused. Where a SMILES comes first, the peptide text is derived from it. Bridges are numbered along the chain shown (N, C = ends). Side-chain parts run from the residue outwards. [ ]: non-standard residue; d: D form. The star is where a group is joined. X16 = NC(=O)[C@H](CCCCNC(=O)CN1CCN2CCN3CCN(CC1)CC(=O)[O][Lu]([O]C(=O)C2)[O]C(=O)C3)NC(=O)CCC(=O)NCCCOCCOCCOCCCN*; X5 = NC(=O)[C@H](CCCCNC(=O)CN1CCN(CC(=O)O)CCN(CC(=O)O)CCN(CC(=O)O)CC1)NC(=O)CCC(=O)NCCCOCCOCCOCCCN*; NH(1-deoxy-D-glucityl) = OC[C@@H](O)[C@@H](O)[C@H](O)[C@@H](O)CN*; DOTA = O=C(O)CN1CCN(CC(=O)O)CCN(CC(=O)*)CCN(CC(=O)O)CC1; Trp(5-Br) = N[C@@H](Cc1c[nH]c2ccc(Br)cc12)C(=O)O; Trp(5-Cl) = N[C@@H](Cc1c[nH]c2ccc(Cl)cc12)C(=O)O; Pyridine(2,6-diCH2) = c1cc(C[*:1])nc(C[*:2])c1; Trp(7-F) = N[C@@H](Cc1c[nH]c2c(F)cccc12)C(=O)O; Pro(4R-NH2) = N[C@H]1CN[C@H](C(=O)O)C1; mXylylene = c1cc(C[*:1])cc(C[*:2])c1; Glutaryl = O=C(CCCC(=O)[*:2])[*:1]; Hyp = O=C(O)[C@@H]1C[C@@H](O)CN1; X1 = O=C(CN1CCC(N[*:1])CC1)[*:2]; hSer = N[C@@H](CCO)C(=O)O; Api = NC1(C(=O)O)CCNCC1; Thp = NC1(C(=O)O)CCOCC1; AEEA = NCCOCCOCC(=O)O; Aib = CC(C)(N)C(=O)O

Target: T1, GIPR (CHO-K1-hGIPR cells) (Homo sapiens, UniProt P48546)
T1 construct: host or cells: CHO-K1
T1 sequence (P48546 22-466): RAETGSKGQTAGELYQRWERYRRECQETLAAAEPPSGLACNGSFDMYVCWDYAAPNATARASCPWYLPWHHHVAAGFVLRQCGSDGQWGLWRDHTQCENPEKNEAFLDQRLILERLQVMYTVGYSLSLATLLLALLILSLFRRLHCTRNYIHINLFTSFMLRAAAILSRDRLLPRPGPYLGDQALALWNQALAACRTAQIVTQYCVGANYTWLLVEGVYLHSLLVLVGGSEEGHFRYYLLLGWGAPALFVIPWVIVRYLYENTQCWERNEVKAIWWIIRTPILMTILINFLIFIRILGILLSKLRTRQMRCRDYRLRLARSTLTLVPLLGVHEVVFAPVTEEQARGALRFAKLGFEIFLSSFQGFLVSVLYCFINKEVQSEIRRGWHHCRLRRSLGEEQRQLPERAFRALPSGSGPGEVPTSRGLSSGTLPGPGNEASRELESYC
Test: FACS binding assay
Procedure, shortened: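 Median fluorescence in the APC channel, measured on washed CHO-K1 cells overexpressing human GIPR, was fitted by four-parameter logistic regression against peptide concentration to yield EC50 or IC50 values. Secondary labelling used APC-streptavidin (1 μg/mL, 30 min, ice).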

[1] = competition with 20 nM GIP-057, 4° C., 1 hour, read-out: pIC50 Category (converted)

Row | SMILES | IC50 [1] [µM] | other results
1 | CC[C@H](C)[C@@H]1NC(=O)[C@H](CC(C)C)NC(=O)C2(CCN(C(=O)CN3CCN(CC(=O)O)CCN(CC(=O)O)CCN(CC(=O)O)CC3)CC2)NC(=O)[C@@H](NC(=O)[C@@H](CC(C)C)NC(=O)[C@H](CCC(=O)O)NC(=O)[C@@H]2C[C@@H](N)CN2C(=O)[C@H](Cc2c[nH]c3ccc(Br)cc23)NC(=O)[C@H](Cc2c[nH]c3ccccc23)NC(=O)[C@H](CCO)NC(=O)CCCC(=O)NC[C@H](O)[C@@H](O)[C@H](O)[C@H](O)CO)CSCc2cccc(n2)CSC[C@@H](C(=O)NC2CCN(CC(=O)N[C@H](CCC(=O)NC[C@H](O)[C@@H](O)[C@H](O)[C@H](O)CO)C(N)=O)CC2)NC1=O [GIP-016, AGLU-Glutar-Hse-Trp-5Brw-Tap-Glu-leu-[Cys(2Lut)-Apc(DOTA)-Leu-Ile-Cys]-APAc-glu(AGLU)-NH2] ({NH(1-deoxy-D-glucityl)-Glutaryl}-[hSer]W[Trp(5-Br)][Pro(4R-NH2)]E[dL]C[Api](DOTA)LIC[X1][dE](NH(1-deoxy-D-glucityl))-NH2; linker 7-11 via Pyridine(2,6-diCH2)) | < 0.01 | –
2 | CC[C@H](C)[C@@H]1NC(=O)[C@H](CO)NC(=O)C2(CCOCC2)NC(=O)[C@@H](NC(=O)[C@@H](CC(C)C)NC(=O)[C@H](CCC(=O)O)NC(=O)[C@@H]2C[C@@H](O)CN2C(=O)[C@H](Cc2c[nH]c3ccc(Cl)cc23)NC(=O)[C@H](Cc2c[nH]c3ccccc23)NC(=O)[C@H](CC(=O)O)NC(C)=O)CSCc2cccc(n2)CSC[C@@H](C(N)=O)NC1=O [GIP-236, Ac-Asp-Trp-5Clw-Hyp-Glu-leu-[Cys(2Lut)-Thp-Ser-Ile-Cys]-NH2] (Ac-DW[Trp(5-Cl)][Hyp]E[dL]C[Thp]SIC-NH2; linker 7-11 via Pyridine(2,6-diCH2)) | < 0.01 | –
3 | CC[C@H](C)[C@@H]1NC(=O)[C@H](CC(C)C)NC(=O)C2(CCOCC2)NC(=O)[C@@H](NC(=O)[C@@H](CC(C)C)NC(=O)[C@H](CCC(=O)O)NC(=O)[C@@H]2C[C@@H](O)CN2C(=O)[C@H](Cc2c[nH]c3ccc(Cl)cc23)NC(=O)[C@H](Cc2c[nH]c3c(F)cccc23)NC(=O)[C@H](CC(=O)O)NC(C)=O)CSCc2cccc(n2)CSC[C@@H](C(N)=O)NC1=O [GIP-221, Ac-Asp-7Fw-5Clw-Hyp-Glu-leu-[Cys(2Lut)-Thp-Leu-Ile-Cys]-NH2] (Ac-D[Trp(7-F)][Trp(5-Cl)][Hyp]E[dL]C[Thp]LIC-NH2; linker 7-11 via Pyridine(2,6-diCH2)) | < 0.01 | –
4 | CC[C@H](C)[C@@H]1NC(=O)[C@H](CC(C)C)NC(=O)C(C)(C)NC(=O)[C@@H](NC(=O)[C@@H](CC(C)C)NC(=O)[C@H](CCC(=O)O)NC(=O)[C@@H]2CCCN2C(=O)[C@H](Cc2c[nH]c3ccc(Cl)cc23)NC(=O)[C@H](Cc2c[nH]c3ccccc23)NC(=O)[C@H](CC(=O)O)NC(C)=O)CSCc2cccc(c2)CSC[C@@H](C(=O)NCCCOCCOCCOCCCNC(=O)CCC(=O)N[C@@H](CCCCNC(=O)CN2CCN3CCN4CCN(CC2)CC(=O)[O][Lu]([O]C(=O)C3)[O]C(=O)C4)C(N)=O)NC1=O [GIP-156, Ac-Asp-Trp-5Clw-Pro-Glu-leu-[Cys(3MeBn)-Aib-Leu-Ile-Cys]-Ttds-Lys(LuDOTA)-NH2] (Ac-DW[Trp(5-Cl)]PE[dL]C[Aib]LIC-X16; linker 7-11 via mXylylene) | – | IC50 (pIC50 Category, competition with 20 nM GIP-057, 4° C., 1 hour): < 0.01 µM
5 | CC[C@H](C)[C@@H]1NC(=O)[C@H](CC(C)C)NC(=O)C2(CCN(C(=O)CCCC(=O)NC[C@H](O)[C@@H](O)[C@H](O)[C@H](O)CO)CC2)NC(=O)[C@@H](NC(=O)[C@@H](CC(C)C)NC(=O)[C@H](CCC(=O)O)NC(=O)[C@@H]2C[C@@H](N)CN2C(=O)[C@H](Cc2c[nH]c3ccc(Cl)cc23)NC(=O)[C@H](Cc2c[nH]c3ccccc23)NC(=O)[C@H](CC(=O)O)NC(=O)COCCOCCNC(=O)[C@@H](CCC(=O)NC[C@H](O)[C@@H](O)[C@H](O)[C@H](O)CO)NC(=O)CN2CCN(CC(=O)O)CCN(CC(=O)O)CCN(CC(=O)O)CC2)CSCc2cccc(n2)CSC[C@@H](C(=O)NC2CCN(CC(=O)N[C@H](CCC(=O)NC[C@H](O)[C@@H](O)[C@H](O)[C@H](O)CO)C(N)=O)CC2)NC1=O [GIP-009, DOTA-glu(AGLU)-O2Oc-Asp-Trp-5Clw-Tap-Glu-leu-[Cys(2Lut)-Apc(AGLU-Glutar)-Leu-Ile-Cys]-APAc-glu(AGLU)-NH2] ({DOTA}-[dE](NH(1-deoxy-D-glucityl))[AEEA]DW[Trp(5-Cl)][Pro(4R-NH2)]E[dL]C[Api]([Glutaryl-NH(1-deoxy-D-glucityl)])LIC[X1][dE](NH(1-deoxy-D-glucityl))-NH2; linker 9-13 via Pyridine(2,6-diCH2)) | < 0.01 | –
6 | CC[C@H](C)[C@@H]1NC(=O)[C@H](CC(C)C)NC(=O)C(C)(C)NC(=O)[C@@H](NC(=O)[C@H](CC(C)C)NC(=O)[C@H](CCC(=O)O)NC(=O)[C@@H]2CCCN2C(=O)[C@H](Cc2c[nH]c3ccccc23)NC(=O)[C@H](Cc2c[nH]c3ccc(Cl)cc23)NC(=O)[C@H](CC(=O)O)NC(C)=O)CSCc2cccc(c2)CSC[C@@H](C(=O)NCCCOCCOCCOCCCNC(=O)CCC(=O)N[C@@H](CCCCNC(=O)CN2CCN(CC(=O)O)CCN(CC(=O)O)CCN(CC(=O)O)CC2)C(N)=O)NC1=O [GIP-277, Ac-Asp-5Clw-Trp-Pro-Glu-Leu-[Cys(3MeBn)-Aib-Leu-Ile-Cys]-Ttds-Lys(DOTA)-NH2] (Ac-D[Trp(5-Cl)]WPELC[Aib]LIC-X5; linker 7-11 via mXylylene) | – | IC50 (competition with 20 nM GIP-057, 4° C. for 1 hour, read-out: pIC50 Category (converted)): 0.1 to 0.794 µM
